In data set [1] the test system is PKC. The experiment in a line: PKC inhibitors on diterpene-induced GFP expression in J-Lat clones 9.2 and 10.6. Format: cell-based. As for the experimental part: (§1) For analysis of cell surface marker expression, MT-4 cells and bead-selected CD4+ T cells (described above) were incubated with 1 µM of each compound (ING-A, ING-B, ING-C, prostratin, PMA, and bryostatin-1) at 37°C for 48 h. After incubation, cells were washed with PBS and incubated for 20 min at room temperature with antibodies against CD3-Brilliant Violet 510 (clone OKT3 – Biolegend), CD4-Qdot 655 (clone 53.5 - Life Technologies), CXCR4-PE (clone 1265 - BD Biosciences), CCR5-PerCP-Cy5.5 (clone 3A9 - BD Biosciences), CD69-Pacific Blue (clone FN50 – BD Biosciences), CD38-FITC (clone AT-1 – Stem Cell Technologies), CD25-APC (clone 2A3 – BD Biosciences), HLA-DR-Qdot 605 (clone TÜ36 – Life Technologies) and a marker for annexin V-FITC (Life Technologies). Cells (both MT-4 cells and CD4+ T cells) were initially incubated for 2 h with different PKC inhibitors (GÖ6983, GÖ6976 or RO-31-8220). Then, ING-B, prostratin or PMA at 1 µM or TNF-α at 10 ng/mL were added to each condition and incubation was carried out for 24 h at 37°C. Similar protocol was used for the analysis of PKC inhibitors in J-Lat clones 9.2 and 10.6. GFP expression, surface marker expression and activation marker were evaluated on a LSR Fortessa cytometer (BD Biosciences). Data analysis was performed using FlowJo software (Tree Star).

In data set [2] the test system is PKC. The experiment in a line: PKC inhibitors on ING-B-driven receptor downregulation in MT-4 cells. It counts as cell-based. To be noted: 0.1 µM inhibitor, then 1 µM ING-B 24 h. As for the experimental part:
as §1

Data set [3] relates to PKC. The experiment in a line: PKC inhibitors on ING-B-driven receptor downregulation in CD4+ T lymphocytes. To be noted: 0.1 µM inhibitor in the presence of 1 µM ING-B. Format: cell-based, human. As to the method:
as §1

Data set [4] concerns HIV-1 clone ZM247Fv-1 (subtype C). The experiment in a line: HIV-1 ZM247Fv-1 (subtype C) infection of human PBMCs, Cell Titer Blue readout. It counts as cell-based. To be noted: for TI (CC50/EC50): Human PBMC, Subtype C (R5); for EC50: Human immunodeficiency virus 1, PBMC. As for the experimental part:
(§2) Human PMBCs were incubated with 100 U recombinant IL-2 (Sigma-Aldrich) and 5 µg/mL phytohemagglutinin-P (PHA-P) (Difco) for 5 days at 37°C. MT-4 cells (1×10^6) or treated PBMCs (1.2×10^8) were infected with HIV-1 clone NL-4.3 or ZM247Fv-1 (MOI of 0.001) by spinoculation (1200 g at room temperature for 2 h). Uninfected cells were used as negative control and were also subjected to the spinoculation process. After spinoculation, supernatants were discarded and cells were resuspended in 10 mL of R10. Cells from each condition were then added to wells (96-well plate) containing serial dilutions of each ISD. For MT-4 cells, each dilution was done in sextuplicates and, for PBMCs, in triplicates. Cells were also incubated with different concentrations of ZDV as positive control. After 5 days in culture, Cell Titer Blue was added to each well and cells were incubated for additional 24 h. The median effective concentration for each drug is defined as EC50. In parallel with the infectivity assay, the same cell types were treated with different concentrations of drugs to determine their cytotoxicity, following the protocol described above. Drug concentration that results in a 50% decrease in viable cells is defined as the CC50 for each compound. EC50 was calculated according to Spearman-Karber and therapeutic index was defined by the ratio between CC50 and EC50 [55].
(§3) All statistical analyses were performed using program GraphPism version 6.0. Titrations for TCID50 infectivity were calculated by the Spearman-Karber method. Dose response curves to ISDs with HIV-1 subtype B and C were done using non-linear regression and were fit to the Hill equation.
(In general: The colour change of resazurin is a common sign of viable cells or microbes.)

A short description of data set [5]: Cytotoxicity (CC50) in human PBMCs. It counts as cell-based. To be noted: human PBMCs activated with IL-2 and PHA-P; Human PBMC, Subtype C (R5). As for the experimental part:
(§4) Cytotoxicity of ISDs was evaluated in J-Lat (clones 9.2 and 10.6) and PHA-activated human PBMCs. Cells were added to wells in a 96-well plate in the presence of various concentrations of ISDs, PMA or prostratin in sextuplicates for 24 and 72 h. Cell viability was determined using the CellTiter-blue fluorescence Cell Viability Assay (Promega) following the manufacturer's instruction.
as §2

The nature of data set [6]: Cytotoxicity (CC50) in MT-4 cells. It counts as cell-based. The settings on record: human, Subtype B (X4). As for the experimental part: as §4, §2
Data set [7] deals with HIV-1 clone NL4.3 (subtype B). The experiment in a line: HIV-1 NL4.3 (subtype B) infection of MT-4 cells, Cell Titer Blue readout. Format: cell-based. To be noted: for EC50: Human immunodeficiency virus 1, MT4. As for the experimental part: as §2, §3
For data set [8], the system named is HIV-1 clone ZM247Fv-1 (subtype C). The experiment in a line: HIV-1 ZM247Fv-1 (subtype C) infection of MT-4 cells, Cell Titer Blue readout. It counts as cell-based. The settings on record: for EC50: Human immunodeficiency virus 1, MT4; for TI (CC50/EC50): MT-4 cells, Subtype C (R5). As to the method: as §2, §3
Data set [9] concerns HIV-1 clone NL4.3 (subtype B). The experiment in a line: HIV-1 NL4.3 (subtype B) infection of human PBMCs, Cell Titer Blue readout. Format: cell-based. As for the experimental part: as §2, §3
For a further data set, the system named is HIV LTR in J-Lat clones. The experiment in a line: LTR-driven GFP expression in J-Lat clones. It counts as cell-based, HIV-1. The settings on record: J-Lat clones 9.2 and 10.6, 48 h, all concentrations tested. As for the experimental part: J-Lat cells are Jurkat cells stably transfected by an HIV genome whose nef sequence was replaced by the GFP gene. Also, a frameshift mutation was introduced to the env gene to prevent virus spread. […] To test the ISDs, a million cells of each clone were treated with different concentrations of each compound (ING-A, ING-B, ING-C, prostratin and PMA) at 37°C. TNF-α (10 ng/mL) was used as a positive control. After 48 h, cells were collected, washed with saline solution (PBS) and GFP expression was evaluated in a FACScalibur cytometer (BD Biosciences). Data were analyzed with Cell Quest Pro software (BD Biosciences).

Data set [10] relates to CD4, CXCR4, CCR5 on CD4+ T lymphocytes. The experiment in a line: Surface CD4, CXCR4, CCR5 expression in CD4+ T lymphocytes (cytometry). Format: cell-based, human. To be noted: CD4+ lymphocytes, 1 µM. As to the method:
as §1

Data set [11] has as its system CD4, CXCR4, CCR5 on MT-4 cells. The experiment in a line: Surface CD4, CXCR4, CCR5 expression in MT-4 cells (cytometry). It counts as cell-based. To be noted: 1 µM. As for the experimental part: as §1
The next data set deals with CD4+ T lymphocytes. The experiment in a line: Activation markers CD25, CD38, HLA-DR, CD69 on CD4+ T lymphocytes (cytometry). It counts as cell-based, human. The settings on record: 1 µM. As to the method: For analysis of cell surface marker expression, MT-4 cells and bead-selected CD4+ T cells (described above) were incubated with 1 µM of each compound (ING-A, ING-B, ING-C, prostratin, PMA, and bryostatin-1) at 37°C for 48 h. […] Cells (both MT-4 cells and CD4+ T cells) were initially incubated for 2 h with different PKC inhibitors (GÖ6983, GÖ6976 or RO-31-8220). Then, ING-B, prostratin or PMA at 1 µM or TNF-α at 10 ng/mL were added to each condition and incubation was carried out for 24 h at 37°C. […] GFP expression, surface marker expression and activation marker were evaluated on a LSR Fortessa cytometer (BD Biosciences). Data analysis was performed using FlowJo software (Tree Star).

A further data set has as its system HIV-1 subtype B and C. The experiment in a line: Inhibition of HIV-1 subtype B and C replication, summary over MT-4 cells and human PBMCs. It counts as cell-based. The settings on record: Human immunodeficiency virus 1, PBMC, MT-4 and human PBMCs. As for the experimental part:
as §2

Where [12] appears, read: Human immunodeficiency virus 1, PBMC.

In the case of `Cn1c2ccccc2c2c3c(c4c5ccccc5n(CCC#N)c4c21)C(=O)NC3` [GÖ6976], in the data set with PKC [1] (0.1 µM inhibitor), the “effect on ISD induction of GFP expression” value is given as “little effect”. Further, the “effect on ING-B-driven receptor downregulation” value in the data set on PKC [2] is “little effect on blocking receptor downregulation”.
For the compound `COc1ccc2c(c1)c(C1=C(c3c[nH]c4ccccc34)C(=O)NC1=O)cn2CCCN(C)C` [GÖ6983], the “blocking of GFP expression induced by ING-B” value in the data set on PKC [1] (J-Lat clones 9.2 and 10.6, pre-treatment, then ING-B 24 h) was “strongly blocked GFP expression”. The “overexpression of CD4 and CCR5 compared to untreated control” value in the data set on PKC [3] is recorded as “up to 2.5 fold”. The “effect on ING-B-driven receptor downregulation” value in the data set with PKC [2] is “not able to downregulate the expression of CD4 and CXCR4”.
The term EC50 denotes the concentration at which the effect is half-maximal. As usually defined, the CC50 is the concentration that lowers cell viability or growth by half. A higher CC50 goes with lower toxicity to the cells. Turning to `CC1=C[C@]23C(=O)[C@@H](C=C(CO)[C@@H](O)[C@]2(O)[C@H]1OC(=O)/C=C/c1ccccc1)[C@H]1[C@@H](C[C@H]3C)C1(C)C` [ING-A, ingenol-3-trans-cinnamate], the “TI (CC50/EC50)” value is 693.9 in data set [4]; 675.6 in data set [7] (MT-4 cells, Subtype B (X4)); 657.9 in [8]; 641.5 in data set [9] (Human PBMC, Subtype B (X4)). The half-maximal effective concentration (EC50) was determined as 49 nM in data set [4], 37 nM in [7], 38 nM in data set [8] and 53 nM in data set [9] (setting [12]). Besides, the CC50 at 5 days in data set [5] was 34000 nM; in data set [6], 25000 nM. Also, in the data set on HIV LTR in J-Lat clones, the “levels of GFP expression, rank order” value is recorded as “PMA = ING-B > ING-A = ING-C > prostratin”.
In the case of `CCCCCCCCCCCC(=O)O[C@H]1C(C)=C[C@]23C(=O)[C@@H](C=C(CO)[C@@H](O)[C@]12O)[C@H]1[C@@H](C[C@H]3C)C1(C)C` [ING-C, ingenol-3-dodecanoate], the “TI (CC50/EC50)” value is on record as 413 in [4]; 658.5 in data set [7] (MT-4 cells, Subtype B (X4)); 750 in [8]; 730.7 in data set [9] (Human PBMC, Subtype B (X4)). Also, the EC50 in data set [4] turned out to be 92 nM; in data set [7] it was 41 nM; in data set [8], 36 nM; in [9] (setting [12]), 52 nM. For the same compound, the cytotoxic concentration (CC50) at 5 days in data set [5] was 38000 nM; in [6], 27000 nM. Besides, the “levels of GFP expression, rank order” value in the data set on HIV LTR in J-Lat clones was “PMA = ING-B > ING-A = ING-C > prostratin”.
For the compound `CCCCCCCCCCCCCC(=O)O[C@@H]1[C@@H](C)[C@@]2(O)[C@@H](C=C(CO)C[C@]3(O)C(=O)C(C)=C[C@@H]23)[C@@H]2C(C)(C)[C@]12OC(C)=O` [PMA, phorbol 13-myristate acetate], the “levels of CD4 expression” value in data set [10] is recorded as “severely diminished”. In addition, the “levels of GFP expression, rank order” value in the data set on HIV LTR in J-Lat clones is reported as “PMA = ING-B > ING-A = ING-C > prostratin”. The “surface CD4 and CXCR4 expression, of that in the control condition” value in data set [11] is recorded as at least 50%. For the same compound, in the data set with CD4+ T lymphocytes, the CD25 surface expression entry was “upregulated”; the “CD69 and CD38 surface expression” value is reported as “more intensely”; the HLA-DR surface expression result is “upregulated by ISDs and PMA”.
On to `Cn1cc(C2=C(c3cn(CCCSC(=N)N)c4ccccc34)C(=O)NC2=O)c2ccccc21` [RO-31-8220], for which, in the data set with PKC [1] (discussion statement), the “reduction of ING-B-driven GFP expression” value is recorded as 75%. The “GFP expression reduced to” value in the data set with PKC [1] (pre-incubation with 0.1 µM inhibitor, response to ISDs, prostratin and PMA) is 75%. In addition, the “overexpression of CD4 and CCR5 compared to untreated control” value with PKC [3] is “up to 2.5 fold”. The “effect on ING-B-driven receptor downregulation” value with PKC [2] is “not able to downregulate the expression of CD4 and CXCR4”.
Take `Cc1cn([C@H]2C[C@H](N=[N+]=[N-])[C@@H](CO)O2)c(=O)[nH]c1=O` [ZDV, Zidovudine, reference compound]: the concentration for a half-maximal effect (EC50) in data set [4] was 8 nM; in the data set on HIV-1 subtype B and C, 4 to 8 nM; in data set [7] (MT-4 cells, Subtype B (X4), value estimated by extrapolation, read-out: EC50) it was 4 nM; in data set [8], 5 nM; in data set [9] (Human immunodeficiency virus 1, Human PBMC, Subtype B (X4), read-out: EC50), 7 nM.
Take `CCC/C=C/C=C/C(=O)O[C@H]1/C(=C/C(=O)OC)C[C@H]2C[C@H]([C@@H](C)O)OC(=O)C[C@H](O)C[C@@H]3C[C@H](OC(C)=O)C(C)(C)[C@](O)(C[C@@H]4C/C(=C/C(=O)OC)C[C@H](/C=C/C(C)(C)[C@]1(O)O2)O4)O3` [bryostatin-1]: the “downregulation of surface CCR5” value in data set [10] is listed as “less efficient in downregulating surface expression of CCR5”. Besides, the “downregulation of surface CD4 and CXCR4 (in words)” value in data set [11] is “not by prostratin and bryostatin-1”.

The record behind these values is PMC4020785 (PLoS ONE, 2014).
